Laboratory results: patent publication US6596728B1, “Substituted 1,3-diaryl-2-pyrid-2-yl-3-(pyrid-2-ylamino)propanol derivatives, process for their preparation, pharmaceuticals comprising these compounds and their use” (Aventis Pharma Deutschland GmbH, priority 1998, dated 2003)

Biological target: T1, intestinal bile acid transportation system (Na+-dependent) in brush border membrane vesicles of the ileum (Oryctolagus cuniculus, UniProt Q28727)
T1 construct: Preparation of Brush Border Membrane Vesicles from the Ileum of Rabbits; from tissue; host or cells: brush border membrane vesicles from terminal ileum of male New Zealand rabbits
T1 sequence (Q28727 1-347): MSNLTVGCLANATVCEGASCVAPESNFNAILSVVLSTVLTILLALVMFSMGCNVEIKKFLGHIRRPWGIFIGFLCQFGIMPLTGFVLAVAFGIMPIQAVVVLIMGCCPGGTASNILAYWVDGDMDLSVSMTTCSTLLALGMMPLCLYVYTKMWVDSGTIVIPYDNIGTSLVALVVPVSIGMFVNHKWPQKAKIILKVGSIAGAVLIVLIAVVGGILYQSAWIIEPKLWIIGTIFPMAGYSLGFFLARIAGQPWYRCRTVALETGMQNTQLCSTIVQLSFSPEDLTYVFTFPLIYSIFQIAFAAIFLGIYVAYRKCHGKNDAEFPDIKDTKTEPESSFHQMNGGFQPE
Assay: Inhibition of Na+-dependent [3H]-taurocholate uptake in brush border membrane vesicles of the ileum of rabbits
Format: biochemical
Conditions: quotient of the IC50Na of the reference substance taurochenodeoxycholate (TCDC) and of the test substance, 50 μM taurocholate, rabbit ileum vesicles
Protocol: Biological testing of the compounds according to the present invention was carried out by determining the inhibition of [^3H]-taurocholate uptake in brush border membrane vesicles of the ileum of rabbits. The inhibition test was carried out as follows:
1. Preparation of Brush Border Membrane Vesicles from the Ileum of Rabbits
Brush border membrane vesicles from the intestinal cells of the small intestine were prepared by the so-called Mg^2+ precipitation method. Male New Zealand rabbits (2 to 2.5 kg body weight) were sacrificed by intravenous injection of 0.5 ml T61®, an aqueous solution of 2.5 mg tetracaine HCl, […] embutramide and 25 mg mebezonium iodide. The small intestine was removed and rinsed with ice-cold physiological saline solution. The terminal 7/10 of the small intestine (measured in the oral-rectal direction, i.e., the terminal ileum, which contains the active Na^+-dependent bile acid transportation system) was used for preparation of the brush border membrane vesicles. The intestines were frozen in plastic bags under nitrogen at −80° C. For preparation of the membrane vesicles, the frozen intestines were thawed at 30° C. in a water bath. The mucosa was scraped off and suspended in 60 ml of ice-cold 12 mM TRIS/HCl buffer (pH 7.1)/300 mM mannitol, 5 mM EGTA/10 mg/l of phenylmethylsulfonyl fluoride/1 mg/l of trypsin inhibitor from soybeans (32 U/mg)/0.5 mg/l of trypsin inhibitor from bovine lung (193 U/mg)/5 mg/l of bacitracin. After dilution to 300 ml with ice-cold distilled water, the mixture was homogenized with an Ultraturrax (18-rod, IKA Werk Staufen, Germany) for 3 minutes at 75% of the maximum output by cooling with ice. After addition of 3 ml of 1 M MgCl2 solution (final concentration 10 mM), the mixture was allowed to stand for exactly 1 minute at 0° C. The cell membranes aggregate by addition of Mg^2+ and precipitate, with the exception of the brush border membranes. After centrifugation at 3000×g (5000 rpm, SS-34 rotor) for 15 minutes, the precipitate was discarded land the supernatant, which contains the brush border membranes, was centrifuged at 48000×g (20000 rpm, SS-34 rotor) for 30 minutes. The supernatant was discarded, and the precipitate was rehomogenized in 60 ml of 12 mM TRIS/HCl buffer (pH 7.1)/60 mM mannitol, 5 mM EGTA with a Potter Elvejhem homogenizer (Braun, Melsungen, 900 rpm, 10 strokes). After addition of 0.1 ml of 1 M MgCl2 solution and incubation for 15 minutes at 0° C., centrifugation was again carried out at 3000×g for 15 minutes. The supernatant was then centrifuged again at 48000×x g (20000 rpm, SS-34 rotor) for 30 minutes. The precipitate was taken up in 30 ml of 10 mM TRIS/HEPES buffer (pH 7.4)/300 mM mannitol and resuspended homogeneously by 20 strokes in a Potter Elvejhem homogenizer at 1000 rpm. After centrifugation at 48000×g (20000 rpm, SS-34 rotor) for 30 minutes, the precipitate was taken up in 0.5 to 2 ml of TRIS/HEPES buffer (pH 7.4)/280 mM mannitol (final concentration 20 mg/ml) and resuspended with the aid of a Tuberculin syringe with a 27-gauge needle. The vesicles were either used for transportation investigations directly after preparation or stored at −196° C. in 4 mg portions in liquid nitrogen.
2. Inhibition of the Na^+-dependent [^3H]taurocholate Uptake in Brush Border Membrane Vesicles of the Ileum
The uptake of substrates in the brush border membrane vesicles described above was determined by means of the so-called membrane filtration technique. 10 μl of the vesicle suspension (100 μg of protein) were pipetted as drops onto the wall of a polystyrene incubation tube (11×70 mm) which contained the incubation medium with the corresponding ligands (90 μl). […]

| Compound | IC50Na-TCDC (μmol) / IC50Na-compound (μmol) |
| --- | --- |
| C#CCCC(=O)Nc1ccccc1[C@@H](Nc1ccccn1)[C@H](c1ccccn1)[C@H](O)c1ccccc1 [Example 31] | 1.13 |
| O=C(Cc1ccc(Cl)cc1)Nc1ccccc1[C@@H](Nc1ccccn1)[C@H](c1ccccn1)[C@H](O)c1ccccc1 [Example 33] | 0.52 |
| O=C(Cc1cccs1)Nc1ccccc1[C@@H](Nc1ccccn1)[C@H](c1ccccn1)[C@H](O)c1ccccc1 [Example 34] | 0.81 |
| COc1ccc(CCC(=O)Nc2ccccc2[C@@H](Nc2ccccn2)[C@H](c2ccccn2)[C@H](O)c2ccccc2)cc1OC [Example 35] | 0.36 |
| O=C(CCC(=O)c1ccc(Cl)cc1)Nc1ccccc1[C@@H](Nc1ccccn1)[C@H](c1ccccn1)[C@H](O)c1ccccc1 [Example 36] | 0.36 |
| Cc1ccccc1OCC(=O)Nc1ccccc1[C@@H](Nc1ccccn1)[C@H](c1ccccn1)[C@H](O)c1ccccc1 [Example 45] | 1.03 |
| O=C(CN1C(=O)c2ccccc2C1=O)Nc1ccccc1[C@@H](Nc1ccccn1)[C@H](c1ccccn1)[C@H](O)c1ccccc1 [Example 47] | 1.00 |
| CN(CC(=O)Nc1ccccc1[C@@H](Nc1ccccn1)[C@H](c1ccccn1)[C@H](O)c1ccccc1)C(=O)OC(C)(C)C [Example 49] | 0.86 |
| CCOCC(=O)Nc1ccccc1[C@@H](Nc1ccccn1)[C@H](c1ccccn1)[C@H](O)c1ccccc1 [Example 50] | 0.67 |
| CCCCCC#CC(=O)Nc1ccccc1[C@@H](Nc1ccccn1)[C@H](c1ccccn1)[C@H](O)c1ccccc1 [Example 60] | 0.62 |
| O=[N+]([O-])c1ccccc1S(=O)(=O)Nc1ccccc1C(Nc1ccccn1)C(c1ccccn1)C(O)c1ccccc1 (centres unmarked) [Example 65] | 0.84 |
| CC(C)(C)c1ccc(S(=O)(=O)Nc2ccccc2C(Nc2ccccn2)C(c2ccccn2)C(O)c2ccccc2)cc1 (centres unmarked) [Example 66] | 0.93 |
| CC1(C)[C@@H]2CCC1(CS(=O)(=O)Nc1ccccc1C(Nc1ccccn1)C(c1ccccn1)C(O)c1ccccc1)C(=O)C2 (some centres unmarked) [Example 69] | 1.00 |
| O=S(=O)(Nc1ccccc1C(Nc1ccccn1)C(c1ccccn1)C(O)c1ccccc1)c1cc(Cl)cc(Cl)c1O (centres unmarked) [Example 74] | 0.70 |
| Cc1c(C)c(S(=O)(=O)Nc2ccccc2C(Nc2ccccn2)C(c2ccccn2)C(O)c2ccccc2)c(C)c2c1OC(C)(C)CC2 (centres unmarked) [Example 83] | 0.24 |
| CCCCOc1ccc(S(=O)(=O)Nc2ccccc2C(Nc2ccccn2)C(c2ccccn2)C(O)c2ccccc2)cc1 (centres unmarked) [Example 87] | 0.84 |
| CN(C)c1cccc2c(S(=O)(=O)Nc3ccccc3C(Nc3ccccn3)C(c3ccccn3)C(O)c3ccccc3)cccc12 (centres unmarked) [Example 89] | 0.90 |
| CS(=O)(=O)c1ccc(S(=O)(=O)Nc2ccccc2C(Nc2ccccn2)C(c2ccccn2)C(O)c2ccccc2)cc1 (centres unmarked) [Example 94] | 0.40 |

Results, then the molecule that gave them:

| IC50Na-TCDC (μmol) / IC50Na-compound (μmol) | Compound |
| --- | --- |
| 1.06 | N[C@@H](Cc1ccccc1)C(=O)N1CCC[C@H]1C(=O)Nc1ccccc1[C@@H](Nc1ccccn1)[C@H](c1ccccn1)[C@H](O)c1ccccc1 [Example 2c] |
| 0.38 | O=C(Cc1ccccc1C(F)(F)F)Nc1ccccc1[C@@H](Nc1ccccn1)[C@H](c1ccccn1)[C@H](O)c1ccccc1 [Example 38] |
| 0.61 | O=C(Cc1ccsc1)Nc1ccccc1[C@@H](Nc1ccccn1)[C@H](c1ccccn1)[C@H](O)c1ccccc1 [Example 41] |
| 1.05 | O=C(COc1ccc(F)cc1)Nc1ccccc1[C@@H](Nc1ccccn1)[C@H](c1ccccn1)[C@H](O)c1ccccc1 [Example 44] |
| 1.11 | COc1cc(/C=C/C(=O)Nc2ccccc2[C@@H](Nc2ccccn2)[C@H](c2ccccn2)[C@H](O)c2ccccc2)ccc1O [Example 52] |
| 0.46 | O=C(/C=C/c1cccs1)Nc1ccccc1[C@@H](Nc1ccccn1)[C@H](c1ccccn1)[C@H](O)c1ccccc1 [Example 53] |
| 1.15 | O=C(CSc1ncccn1)Nc1ccccc1[C@@H](Nc1ccccn1)[C@H](c1ccccn1)[C@H](O)c1ccccc1 [Example 56] |
| 0.79 | CCOC(=O)/C=C/C(=O)Nc1ccccc1[C@@H](Nc1ccccn1)[C@H](c1ccccn1)[C@H](O)c1ccccc1 [Example 57] |
| 0.66 | Cc1ccnc(SCC(=O)Nc2ccccc2[C@@H](Nc2ccccn2)[C@H](c2ccccn2)[C@H](O)c2ccccc2)n1 [Example 61] |
| 0.99 | N#CC1(C(=O)Nc2ccccc2[C@@H](Nc2ccccn2)[C@H](c2ccccn2)[C@H](O)c2ccccc2)CC1 [Example 62] |
| 0.39 | O=C(CNC(=O)OCc1ccccc1)Nc1ccccc1[C@@H](Nc1ccccn1)[C@H](c1ccccn1)[C@H](O)c1ccccc1 [Example 64] |
| 0.92 | O=S(=O)(Nc1ccccc1C(Nc1ccccn1)C(c1ccccn1)C(O)c1ccccc1)c1ccc(F)cc1 (centres unmarked) [Example 73] |
| 0.22 | CC(C)S(=O)(=O)Nc1ccccc1C(Nc1ccccn1)C(c1ccccn1)C(O)c1ccccc1 (centres unmarked) [Example 77] |
| 0.27 | O=S(=O)(Nc1ccccc1C(Nc1ccccn1)C(c1ccccn1)C(O)c1ccccc1)c1cc(C(F)(F)F)cc(C(F)(F)F)c1 (centres unmarked) [Example 78] |
| 0.79 | O=S(=O)(Nc1ccccc1C(Nc1ccccn1)C(c1ccccn1)C(O)c1ccccc1)c1ccc(Cl)s1 (centres unmarked) [Example 82] |
| 0.92 | O=C(O)c1ccc(S(=O)(=O)Nc2ccccc2C(Nc2ccccn2)C(c2ccccn2)C(O)c2ccccc2)cc1 (centres unmarked) [Example 91] |
| 1.10 | CC(=O)Nc1nc(C)c(S(=O)(=O)Nc2ccccc2C(Nc2ccccn2)C(c2ccccn2)C(O)c2ccccc2)s1 (centres unmarked) [Example 93] |
